For one assay, the system named is APP/PS1 mice. The assay can be described thus: 2-day radial arm water maze (reference memory). It is filed as in vivo. The note with it: 3 mg/kg i.p. for 3 weeks. As for the experimental part: The radial arm water maze task, a hybrid of the classic Morris Water Maze and the radial arm land maze, was performed as described in J. Alamed, D. M. Wilcock, D. M. Diamond, M. N. Gordon, D. Morgan, Two-day radial-arm water maze learning and memory task; robust resolution of amyloid-related memory deficits in transgenic mice, Nat. Prot. 1 (2006) 1671-1679, herein incorporated by reference in its entirety. The mouse had to swim in 6 alleys (arms) radiating from a central area until it found a hidden (submerged) platform at the end of one of the arms, based on visual cues placed in the room. The first day of the protocol was a training day on which mice were trained to identify the platform location by alternating between a visible and a hidden platform in a goal arm. The final 3 trials on that day and all 15 trials on day 2 used a hidden escape platform to force mice to use spatial cues to identify the location of the goal arm. […] The number of incorrect arm entries (entries to arms with no platform) was counted. […] Failure to select an arm after 15 sec was counted as an error and the mouse was returned to the start arm. […] For data analysis, averages for each mouse were calculated using blocks of 3 trials. […]

Another assay deals with hippocampal cGMP levels. The assay can be described thus: Hippocampal cGMP assay after foot shock. It is filed as in vivo, mice. As for the experimental part:
The hippocampal samples were extracted and snap frozen in liquid nitrogen. Levels of cGMP were quantitated by Enzyme Immunoassay procedure (Cayman Chemical Company, Item no. 581021) following the manufacturer's guidelines in duplicate. cGMP levels were normalized with the protein concentration calculated using BCA Protein Assay Reagent (Thermo Scientific).
cGMP levels in adult mice after treatment with compound H were measured. In a series of preliminary experiments, foot shock induces an immediate increase in cGMP levels in the hippocampus (FIG. 1). Concentration of cGMP was measured by enzyme immunoassay. Basal represents cGMP levels without foot shock. Values are the mean of duplicate determinations. Error bars show S.E.M. (n=3 per group); *p<0.01; ^‡p=0.033.

The test system of assay [1] is LTP at the CA3-CA1 connection of hippocampal slices. Briefly: Long-term potentiation in hippocampal slices, compound in bath perfusion. Further details: species or system mice. The following applies: 50 nM bath perfusion.

As for `COc1ccc(CNc2c3c(nc4ccc(C#N)cc24)CCN(C(C)=O)C3)cc1Cl` [Compound H, 2-acetyl-10-[(3-chloro-4-methoxybenzyl)amino]-1,2,3,4-tetrahydrobenzo[b][1,6]naphthyridine-8-carbonitrile], the “effect on reference memory of WT mice (2-day RAWM)” value in the assay on APP/PS1 mice is on record as “no effect”. Besides, the “hippocampal cGMP level” value in the assay with hippocampal cGMP levels (3 mg/kg i.p. 30 min before foot shock, 10 sec after shock) was determined as 0.48 ± 0.014 pmol/mg; in the assay on hippocampal cGMP levels (3 mg/kg i.p. 30 min before foot shock, 60 sec after shock), 0.58 ± 0.033 pmol/mg; in the assay with hippocampal cGMP levels (3 mg/kg i.p. 30 min before foot shock, 180 sec after shock), 0.58 ± 0.044 pmol/mg; in the assay with hippocampal cGMP levels (10 mg/Kg i.p. 30 min before foot shock, 10 sec after shock), 0.56 ± 0.033 pmol/mg; in the assay with hippocampal cGMP levels (10 mg/Kg i.p. 30 min before foot shock, 60 sec after shock), 0.70 ± 0.028 pmol/mg; in the assay with hippocampal cGMP levels (10 mg/Kg i.p. 30 min before foot shock, 180 sec after shock), 0.63 ± 0.013 pmol/mg. Besides, the “effect on LTP of WT slices” value in assay [1] is on record as “no effect”.

Values taken from patent publication US10626113B2, “Phosphodiesterase inhibitors and uses thereof” (THE TRUSTEES OF COLUMBIA UNIVERSITY IN THE CITY OF NEW YORK, priority 2012, dated 2020).
